Results taken from patent publication EP2576536B1, “HAEMATOPOIETIC-PROSTAGLANDIN D2 SYNTHASE INHIBITORS” (priority 2010, dated 2011).
Where “and” joins values, the source holds several entries; their conditions need not be identical. Equal values may be shown once. Read-outs that look alike come from different tables or passages of the source.

How the values were obtained:
[1] = test system: mouse primary bone marrow-derived macrophages (BMM); test: PGD2 production in LPS-activated BMM (EIA); format: cell-based
Protocol: (§1) The human megakaryocytic cell line MEG-01S was obtained from the American Type Culture Collection. MEG-01S were maintained in the same media as for BMM, supplemented with 1 mM Sodium Pyruvate (Invitrogen).
(§2) BMM were seeded overnight at 2 x 10^5 cells/ml in 24 well plates before treatment with compound at either 10 µM or 0.1 - 100 µM for 24 h in the presence or absence of lipopolysaccharide (LPS) from Salmonella Minnesota (Sigma-Aldrich) at a final concentration of 10 ng/ml. MEG-01S were seeded at 2 x 10^5 cells/ml and stimulated with PMA (Phorbol 12-myristate 13-acetate) (Sigma-Aldrich) at a final concentration of 0.1 µM for 16 h.
The compound was tested with 10 µM of compound and LPS (10 ng/ml) for 24 h. […] (Student's t test).

[2] = test system: mouse primary bone marrow-derived macrophages (BMM); test: LPS-inducible PGE2, 6-keto PGF1α and TXB2 production from BMM (EIA), specificity; format: cell-based; details: 24 h
Protocol: as §1, §2

[3] = test system: BMM; test: BMM cell viability by MTT assay; format: cell-based, mouse; details: at 10 µM or 100 µM, LPS, 24 h (Figure 1B)
Protocol: (§3) All bone marrow-derived macrophages (BMM) were obtained by culturing bone marrow cells from the femurs of 6 to 8 week old C57BL/6 male mice in RPMI 1640 medium (Invitrogen Life Technologies, Carlsbad, CA, USA) supplemented with 10 % Fetal calf serum (Invitrogen) 20 U/ml penicillin and 20 µg/ml streptomycin (Invitrogen), 2 mM L-glutamine (Glutamax-1, Invitrogen) in the presence of 10^4 U/ml (100 ng/mL) recombinant human CSF-1 (a gift from Chiron, Emeryville, CA) on bacteriological plastic plates for 7 days. The human megakaryocytic cell line MEG-01S was obtained from the American Type Culture Collection. MEG-01S were maintained in the same media as for BMM, supplemented with 1 mM Sodium Pyruvate (Invitrogen).
(§4) Known inhibitors 1 and 2, along with compound 3, were used to treat BMM at three doses (10, 30, 100 µM) in the presence of LPS for 24 h and cell viability was measured by MTT assay. BMM were seeded at 1 x 10^5 cells/well in 96 well plates and treated for 24 h with LPS (10 ng/ml) and compounds at 10, 30 and 100 µM. MEG-01S were PMA differentiated overnight before compounds were added for a further 24 h at 10, 30 and 100 µM. Cell viability was measured by MTT (Sigma-Aldrich) assay as described previously (Irvine, FASEB J, 2006).

[4] = test system: MEG-01S human megakaryocytes; test: A23187-inducible PGD2 production in PMA-differentiated MEG-01S (EIA); format: cell-based; details: 0-100 µM, 30 min before 5 µM A23187 (Figure 3A)
Protocol: as §3
BMM were seeded overnight at 2 x 10^5 cells/ml in 24 well plates before treatment with compound at either 10 µM or 0.1 - 100 µM for 24 h in the presence or absence of lipopolysaccharide (LPS) from Salmonella Minnesota (Sigma-Aldrich) at a final concentration of 10 ng/ml. […] Supernatants were collected and samples were analysed for PGD2 using Prostaglandin D2 Mox Express EIA kits, PGE2 using Prostaglandin E2 Express EIA kits, the prostacyclin derivative 6-keto PGF1α using the 6-keto Prostaglandin F1α EIA Kit and the Thromboxane A2 derivative TXB2 using the Thromboxane B2 Express EIA kit (Cayman Chemical) according to the manufacturer's instructions. […]

[5] = test system: MEG-01S; test: MEG-01S cell viability by MTT assay; format: cell-based, human; details: 24 h treatment, 0-100 µM (Figure 3B)
Protocol: as §3
as §4, with “MEG-01S were PMA differentiated overnight before compounds were added for a further 24 h at 10, 30 and 100 µM.” left out
The effect of the compounds on MEG-01S cell viability was measured by MTT assay after 24 h treatment across the concentration range 0 - 100 µM of compounds (Figure 3B). […]

[6] = Rat pharmacokinetics, plasma concentration by LC-MS/MS after oral dose; format: in vivo, Sprague Dawley rats
Protocol: (§5) Male adult Sprague Dawley rates (~165g) received a single oral bolus dose of 40mg/kg of compound 3 in a 0.5% methylcellulose/0.1% Tween80 by oral gavage. Rats were sacrificed when collecting blood and spleen samples just prior to dosing and at 0.5 hours, 2h, 8h and 24h (n=3 rats per time point), and the plasma concentration of compound 3 and the spleen PGD2 concentration was measured at each time point.
Blood samples were removed and kept cold at approximately 4°C immediately after collection to minimize degradation and centrifuged as soon as possible at approximately 4000 x g for 10 min. The plasma was transferred to a clean, pre-labelled polypropylene tube and frozen. Samples were stored at -20°C as soon as possible after collection to minimise degradation of the test item.
Plasma concentrations of 3 were determined using a screening LC-ms/ms method developed using the following parameters:
Samples were analysed alongside plasma standards. Concentration data were determined by back calculation from standard curve.

[7] = test system: spleen PGD2; test: Rat target modulation assay, spleen PGD2 by LC-MS/MS; format: in vivo, Sprague Dawley rats; details: 8 hour time point, 40mg/kg oral
Protocol: as §5
Spleens were excised, weighed and snap frozen in a dry ice/ethanol bath. Tissues were stored at -80°C until analysis. […] Samples were centrifuged at 2500 rpm for 5 min at 4°C. The resultant supernatant was diluted and the measurement of PGD2 was determined by solid-phase extraction (SPE) using cationic solid-phase extraction cartridges. The SPE eluent was assayed using a screening LC-MS/MS method against aqueous PGD2 standards, using the following LC-MS/MS parameters: […]

EC50 fold better than that estimated for 1 ([1]; BMM PGD2 production, compound 3 versus compound 1): ~30 fold | EC50 ([1]; Mus musculus, Macrophage, BMM, LPS 10 ng/ml, 24 h, 0-100 µM compound, read-out: EC50 estimated for inhibition of PGD2 production): ~290 nM | Concentration ([6]; individual rat, 0.5 h after 40mg/kg oral gavage): 263 ng/mL and 218 ng/mL | Concentration ([6]; individual rat, 2 h after 40mg/kg oral gavage): 73.5 ng/mL and 107 ng/mL | Concentration ([6]; individual rat, 8 h after 40mg/kg oral gavage): 17.3 ng/mL and 63.9 ng/mL and 51.8 ng/mL | Concentration (ng/mL) ([6]; individual rat, 24 h after 40mg/kg oral gavage): BLOQ^2 | concentration at 0.5 h ([6]; male, Sprague Dawley, rat, plasma, oral, 40 mg/kg, 0.5 h after 40mg/kg oral gavage, N 3, read-out: Mean (± sem) Concentration): 219 ± 24.8 ng/mL | concentration at 2 h ([6]; male, Sprague Dawley, rat, plasma, oral, 40 mg/kg, 2 h after 40mg/kg oral gavage, N 3, read-out: Mean (± sem) Concentration): 91.8 ± 9.79 ng/mL | concentration at 8 h ([6]; male, Sprague Dawley, rat, plasma, oral, 40 mg/kg, 8 h after 40mg/kg oral gavage, N 3, read-out: Mean (± sem) Concentration): 44.3 ± 14 ng/mL | concentration at 24 h ([6]; male, Sprague Dawley, rat, plasma, oral, 40 mg/kg, 24 h after 40mg/kg oral gavage, N 3, BLOQ treated as 0.5 ng/mL, read-out: Mean (± sem) Concentration): 0.677 ± 0.177 ng/mL | concentration at 0.5 h ([6]; male, Sprague Dawley, rat, plasma, oral, 40 mg/kg, individual rat, 0.5 h after 40mg/kg oral gavage, read-out: Concentration): 177 ng/mL | concentration at 2 h ([6]; male, Sprague Dawley, rat, plasma, oral, 40 mg/kg, individual rat, 2 h after 40mg/kg oral gavage, read-out: Concentration): 94.8 ng/mL | concentration at 24 h ([6]; male, Sprague Dawley, rat, plasma, oral, 40 mg/kg, individual rat, 24 h after 40mg/kg oral gavage, read-out: Concentration): 1.03 ng/mL | oral bioavailability ([6]; rat, 40mg/kg oral gavage): orally bioavailable | presence in the serum ([6]; rat, 8 hours post delivery, 40mg/kg oral): present
SMILES: NC(=O)[C@H](Cc1ccccc1)NC(=O)c1ccc(-c2cccs2)nc1 [Compound 3, N-(1-amino-1-oxo-3-phenylpropan-2-yl)-6-(thiophen-2-yl)-nicotinamide]
inhibition of PGD2 production ([1]; BMM, LPS, 24 h, 0-100 µM (Figure 2A)): inhibited PGD2 production in the sub-micromolar range dose-dependently | PGD2 levels ([1]; BMM, LPS, 24 h, at 1 µM): significantly inhibiting | concentration above which PGE2, 6-keto PGF1α and TXB2 inhibition was observed [2]: above 10 µM | differential effect in inhibition of PGD2 versus PGE2, 6-keto PGF1α or TXB2 (selectivity) ([2]; 0-100 µM): striking selectivity | BMM viability [3]: did not affect BMM viability | A23187-inducible PGD2 production [4]: inhibited A23187-inducible PGD2 production from PMA-differentiated MEG-01S human megakaryocytes dose-dependently | MEG-01S cell viability [5]: little effect | reduction in PGD2 activity [7]: 20%
